Measurements from US20070032529A1, “Pyrazole compounds and their use as antidiabetes agents” (Japan Tobacco Inc., priority 2005, published 2007).
Each block holds one compound with its values, some of them ahead of it.

Target: T1, recombinant human liver glycogen phosphorylase (Homo sapiens, UniProt P06737)
T1 construct: made in house; host or cells: Sf9 insect cells (crude homogenate, diluted, used as the enzyme solution)
T1 sequence (P06737 1-847): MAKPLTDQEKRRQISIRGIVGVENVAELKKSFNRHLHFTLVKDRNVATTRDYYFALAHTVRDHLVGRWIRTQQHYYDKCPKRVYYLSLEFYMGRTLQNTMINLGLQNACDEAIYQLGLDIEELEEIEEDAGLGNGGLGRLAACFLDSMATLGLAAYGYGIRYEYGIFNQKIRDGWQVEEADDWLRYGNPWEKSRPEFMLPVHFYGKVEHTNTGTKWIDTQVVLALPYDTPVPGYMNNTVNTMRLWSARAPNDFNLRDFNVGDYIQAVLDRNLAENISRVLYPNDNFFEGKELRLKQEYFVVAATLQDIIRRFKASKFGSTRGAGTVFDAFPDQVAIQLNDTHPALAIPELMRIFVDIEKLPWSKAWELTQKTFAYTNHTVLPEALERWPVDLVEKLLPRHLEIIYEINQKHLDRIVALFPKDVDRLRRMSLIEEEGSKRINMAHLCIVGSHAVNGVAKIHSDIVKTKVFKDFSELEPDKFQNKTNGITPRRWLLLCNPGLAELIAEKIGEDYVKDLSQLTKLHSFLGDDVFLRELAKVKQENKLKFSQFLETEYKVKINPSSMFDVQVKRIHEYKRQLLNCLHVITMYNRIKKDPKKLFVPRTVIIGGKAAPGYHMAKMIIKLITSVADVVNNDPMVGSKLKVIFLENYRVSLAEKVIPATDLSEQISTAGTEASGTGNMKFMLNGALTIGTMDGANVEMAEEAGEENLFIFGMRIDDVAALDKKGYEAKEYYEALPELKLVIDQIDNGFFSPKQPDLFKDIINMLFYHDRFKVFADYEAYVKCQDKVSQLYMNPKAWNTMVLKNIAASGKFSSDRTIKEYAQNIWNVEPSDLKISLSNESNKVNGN
Assay: Measuring liver glycogen phosphorylase activity (forward reaction system, NADPH absorbance at 340 nm)
Assay type: biochemical
Conditions: for inhibition at 1 µM: compound concentration 1000 nmol (in parentheses); for IC50: enzyme inhibitory activity with respect to liver glycogen phosphorylase, class symbols; for inhibition at 0.3 µM: compound concentration 300 nmol (in parentheses); for inhibition at 0.1 µM: compound concentration 100 nmol (in parentheses)
Summary of the method: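 Sf9 homogenate expressing the enzyme, in pH 6.8 BES/EDTA, with glycogen and phosphate substrate plus glucose, coupled via phosphoglucomutase/G6PDH to NADPH formation. A340 change over 75 min at room temperature, blank-corrected; IC50 linearly interpolated between the two concentrations bracketing 50% inhibition versus 1% DMSO control.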

[1] = read-out: inhibition rate (%) at a certain concentration

- inhibition at 1 µM [1]: 42.5%
Structure (SMILES): CCOC(=O)C1CCN(C(=O)c2cc(NC(=O)c3cc(F)c(F)cc3Cl)[nH]n2)CC1 [Example 3-6]

- inhibition at 1 µM [1]: 11.7%
Structure (SMILES): O=C(Nc1cc(C(=O)N2CCC(C(=O)O)CC2)n[nH]1)c1cc(F)c(F)cc1Cl [Example 3-8]

- inhibition at 0.48 µM (compound concentration 480 nmol (in parentheses), read-out: inhibition rate (%) at a certain concentration): 50%
Structure (SMILES): O=C(NCCc1ccccc1)c1cc(NC(=O)c2cc(F)c(F)cc2Cl)[nH]n1 [Example 3-9]

- inhibition at 1 µM [1]: 23.2%
Structure (SMILES): CN(CCc1ccccc1)C(=O)c1cc(NC(=O)c2cc(F)c(F)cc2Cl)[nH]n1 [Example 3-10]

- inhibition at 0.4 µM (compound concentration 400 nmol (in parentheses), read-out: inhibition rate (%) at a certain concentration): 50%
Structure (SMILES): O=C(Nc1cc(C(=O)N2CCc3ccccc3C2)n[nH]1)c1cc(F)c(F)cc1Cl [Example 3-12]

- inhibition at 1 µM [1]: 25.5%
Structure (SMILES): COC(=O)[C@@H](NC(=O)c1cc(NC(=O)c2cc(F)c(F)cc2Cl)[nH]n1)c1ccccc1 [Example 3-13]

- inhibition at 1 µM [1]: 41.7%
Structure (SMILES): COC(=O)[C@H](NC(=O)c1cc(NC(=O)c2cc(F)c(F)cc2Cl)[nH]n1)c1ccccc1 [Example 3-14]

- IC50: 100 to 300 nM
Structure (SMILES): O=C(Nc1cc(C(=O)N2CCCc3ccccc32)n[nH]1)c1cc(F)c(F)cc1Cl [Example 3-15]

- IC50: < 100 nM
Structure (SMILES): CCCN(C(=O)c1cc(NC(=O)c2cc(F)c(F)cc2Cl)[nH]n1)c1ccccc1 [Example 3-16]

- IC50: < 100 nM
Structure (SMILES): CCCCN(C(=O)c1cc(NC(=O)c2cc(F)c(F)cc2Cl)[nH]n1)c1ccccc1 [Example 3-17]

- IC50: 100 to 300 nM
Structure (SMILES): CCCCCN(C(=O)c1cc(NC(=O)c2cc(F)c(F)cc2Cl)[nH]n1)c1ccccc1 [Example 3-18]

- inhibition at 1 µM [1]: 9.2%
Structure (SMILES): O=C(NC(c1ccccc1)c1ccccc1)c1cc(NC(=O)c2cc(F)c(F)cc2Cl)[nH]n1 [Example 3-19]

- inhibition at 0.64 µM (compound concentration 640 nmol (in parentheses), read-out: inhibition rate (%) at a certain concentration): 50%
Structure (SMILES): O=C(N[C@@H](CO)c1ccccc1)c1cc(NC(=O)c2cc(F)c(F)cc2Cl)[nH]n1 [Example 3-22]

- inhibition at 1 µM [1]: 26.1%
Structure (SMILES): O=C(N[C@H](CO)c1ccccc1)c1cc(NC(=O)c2cc(F)c(F)cc2Cl)[nH]n1 [Example 3-23]

- inhibition at 0.3 µM [1]: 41.5%
Structure (SMILES): COc1ccccc1NC(=O)c1cc(NC(=O)c2cc(F)c(F)cc2Cl)[nH]n1 [Example 3-27]

- IC50: 100 to 300 nM
Structure (SMILES): COc1ccccc1N(C)C(=O)c1cc(NC(=O)c2cc(F)c(F)cc2Cl)[nH]n1 [Example 3-28]

- IC50: < 100 nM
Structure (SMILES): Nc1cccc(CNC(=O)c2cc(NC(=O)c3cc(F)c(F)cc3Cl)[nH]n2)c1 [Example 3-30]

- IC50: < 100 nM
Structure (SMILES): CN(C)c1cccc(CNC(=O)c2cc(NC(=O)c3cc(F)c(F)cc3Cl)[nH]n2)c1 [Example 3-34]

- IC50: < 100 nM
Structure (SMILES): O=C(NCc1ccccc1Cl)c1cc(NC(=O)c2cc(F)c(F)cc2Cl)[nH]n1 [Example 3-36]

- IC50: < 100 nM
Structure (SMILES): O=C(NCc1cccc(Cl)c1)c1cc(NC(=O)c2cc(F)c(F)cc2Cl)[nH]n1 [Example 3-37]

- inhibition at 0.3 µM [1]: 1.1%
Structure (SMILES): CN(C)CCNC(=O)c1cc(NC(=O)c2cc(F)c(F)cc2Cl)[nH]n1 [Example 3-42]

- inhibition at 0.3 µM [1]: 13.4%
Structure (SMILES): CCN(CCN(C)C)C(=O)c1cc(NC(=O)c2cc(F)c(F)cc2Cl)[nH]n1 [Example 3-43]

- IC50: 100 to 300 nM
Structure (SMILES): CN(C)CCN(C(=O)c1cc(NC(=O)c2cc(F)c(F)cc2Cl)[nH]n1)C1CCCCC1 [Example 3-44]

- IC50: < 100 nM
Structure (SMILES): COC(=O)COc1ccccc1CNC(=O)c1cc(NC(=O)c2cc(F)c(F)cc2Cl)[nH]n1 [Example 3-47]

- IC50: < 100 nM
Structure (SMILES): O=C(O)COc1ccccc1CNC(=O)c1cc(NC(=O)c2cc(F)c(F)cc2Cl)[nH]n1 [Example 3-48]

- IC50: < 100 nM
Structure (SMILES): COc1ccc(CNC(=O)c2cc(NC(=O)c3ccc(Cl)cc3Cl)[nH]n2)cn1 [Example 3-50]

- IC50: < 100 nM
Structure (SMILES): COc1cncc(OC)c1CNC(=O)c1cc(NC(=O)c2cc(F)c(F)cc2Cl)[nH]n1 [Example 3-51]

- IC50: < 100 nM
Structure (SMILES): Cc1nc(C)c(CNC(=O)c2cc(NC(=O)c3cc(F)c(Cl)cc3Cl)[nH]n2)o1 [Example 3-53]

- inhibition at 1 µM [1]: 13.8%
Structure (SMILES): COC(=O)c1ccc(N(C)C(=O)c2cc(NC(=O)c3cc(F)c(F)cc3Cl)[nH]n2)cc1 [Example 4-1, methyl 5-(2-chloro-4,5-difluorobenzoylamino)-1H-pyrazole-3-carbocylic acid (4-methoxycarbonyl-phenyl)-methyl-amide]

- IC50: 100 to 300 nM
Structure (SMILES): CC(C)N(C(=O)c1cc(NC(=O)c2cc(F)c(F)cc2Cl)[nH]n1)c1ccccc1 [Example 4-3]

- IC50: 100 to 300 nM
Structure (SMILES): O=C(O)CN(C(=O)c1cc(NC(=O)c2cc(F)c(F)cc2Cl)[nH]n1)c1ccccc1 [Example 4-5]

- IC50: 100 to 300 nM
Structure (SMILES): O=C(NCc1ccccc1)c1cc(NC(=O)c2ccc(F)cc2Cl)[nH]n1 [Example 4-6]

- IC50: 100 to 300 nM
Structure (SMILES): O=C(NCc1ccccc1)c1cc(NC(=O)c2ccc(Cl)cc2Cl)[nH]n1 [Example 4-7]

- IC50: 100 to 300 nM
Structure (SMILES): O=C(NCc1ccccc1)c1cc(NC(=O)c2cc(F)ccc2Cl)[nH]n1 [Example 4-8]

- inhibition at 0.59 µM (compound concentration 590 nmol (in parentheses), read-out: inhibition rate (%) at a certain concentration): 50%
Structure (SMILES): CC(C)(NC(=O)c1cc(NC(=O)c2cc(F)c(F)cc2Cl)[nH]n1)c1ccccc1 [Example 4-10]

- IC50: < 100 nM
Structure (SMILES): O=C(Nc1cc(C(=O)N(CC(=O)N2CCCCC2)c2ccccc2)n[nH]1)c1cc(F)c(F)cc1Cl [Example 4-11]

- IC50: 100 to 300 nM
Structure (SMILES): Cc1ccc(F)cc1C(=O)Nc1cc(C(=O)NCc2ccccc2)n[nH]1 [Example 4-12]

- inhibition at 0.3 µM [1]: 38%
Structure (SMILES): Cc1ccc(Cl)cc1C(=O)Nc1cc(C(=O)NCc2ccccc2)n[nH]1 [Example 4-13]

- inhibition at 0.3 µM [1]: 10.6%
Structure (SMILES): COc1ccc(C(=O)Nc2cc(C(=O)NCc3ccccc3)n[nH]2)c(C)c1 [Example 4-14]

- IC50: 100 to 300 nM
Structure (SMILES): Cc1cc(Cl)ccc1C(=O)Nc1cc(C(=O)NCc2ccccc2)n[nH]1 [Example 4-15]

- inhibition at 0.3 µM [1]: 5.1%
Structure (SMILES): COc1ccc(F)cc1C(=O)Nc1cc(C(=O)NCc2ccccc2)n[nH]1 [Example 4-16]

- inhibition at 0.3 µM [1]: 1.1%
Structure (SMILES): COc1ccc(Cl)cc1C(=O)Nc1cc(C(=O)NCc2ccccc2)n[nH]1 [Example 4-17]

- inhibition at 0.3 µM [1]: 3.3%
Structure (SMILES): Cc1ccc(F)c(C(=O)Nc2cc(C(=O)NCc3ccccc3)n[nH]2)c1 [Example 4-19]

- inhibition at 0.3 µM [1]: 3.3%
Structure (SMILES): O=C(NCc1ccccc1)c1cc(NC(=O)c2cc(Cl)ccc2F)[nH]n1 [Example 4-20]

- inhibition at 0.3 µM [1]: 24.2%
Structure (SMILES): O=C(NCc1ccccc1)c1cc(NC(=O)c2c(F)ccc(Cl)c2F)[nH]n1 [Example 4-21]

- IC50: 100 to 300 nM
Structure (SMILES): CC(C)CN(C(=O)c1cc(NC(=O)c2cc(F)c(F)cc2Cl)[nH]n1)c1ccccc1 [Example 4-24]

- IC50: < 100 nM
Structure (SMILES): COC(=O)CCN(C(=O)c1cc(NC(=O)c2cc(F)c(F)cc2Cl)[nH]n1)c1ccccc1 [Example 4-25]

- IC50: < 100 nM
Structure (SMILES): CCOC(=O)CCCN(C(=O)c1cc(NC(=O)c2cc(F)c(F)cc2Cl)[nH]n1)c1ccccc1 [Example 4-26]

- IC50: 100 to 300 nM
Structure (SMILES): O=C(O)CCN(C(=O)c1cc(NC(=O)c2cc(F)c(F)cc2Cl)[nH]n1)c1ccccc1 [Example 4-27]

- IC50: 100 to 300 nM
Structure (SMILES): O=C(O)CCCN(C(=O)c1cc(NC(=O)c2cc(F)c(F)cc2Cl)[nH]n1)c1ccccc1 [Example 4-28]

- inhibition at 0.3 µM [1]: 7.8%
Structure (SMILES): O=C(NCc1ccccc1)c1cc(NC(=O)c2ccc(F)cc2C(F)(F)F)[nH]n1 [Example 4-32]

- inhibition at 0.3 µM [1]: 15.2%
Structure (SMILES): O=C(NCc1ccccc1)c1cc(NC(=O)c2cc(F)ccc2C(F)(F)F)[nH]n1 [Example 4-33]

- inhibition at 0.3 µM [1]: 9.7%
Structure (SMILES): Cc1ccc(C)c(C(=O)Nc2cc(C(=O)NCc3ccccc3)n[nH]2)c1 [Example 4-35]

- inhibition at 0.3 µM [1]: 5.3%
Structure (SMILES): O=C(NCc1ccccc1)c1cc(NC(=O)c2ccc(Cl)nc2Cl)[nH]n1 [Example 4-39]

- inhibition at 0.3 µM [1]: 3.6%
Structure (SMILES): CCCCN(C(=O)c1cc(NC(=O)c2cc(F)c(F)cc2Cl)[nH]n1)c1ccc(C(=O)OCC)cc1 [Example 4-40]

- inhibition at 0.3 µM [1]: 8.5%
Structure (SMILES): Cc1ncccc1C(=O)Nc1cc(C(=O)NCc2ccccc2)n[nH]1 [Example 4-42]

- inhibition at 0.3 µM [1]: 3.8%
Structure (SMILES): Cc1ccc(C(=O)Nc2cc(C(=O)NCc3ccccc3)n[nH]2)c(Cl)n1 [Example 4-43]

- inhibition at 0.1 µM [1]: 5.7%
Structure (SMILES): O=C(NCc1ccccc1)c1cc(NC(=O)c2ccncc2Cl)[nH]n1 [Example 4-44]

- inhibition at 0.1 µM [1]: 5.9%
Structure (SMILES): CCCCN(C(=O)c1cc(NC(=O)c2cc(F)c(F)cc2Cl)[nH]n1)c1ccc(CC(=O)OCC)cc1 [Example 4-45]

- inhibition at 0.1 µM [1]: 1.2%
Structure (SMILES): COCCN(C(=O)c1cc(NC(=O)c2cc(F)c(F)cc2Cl)[nH]n1)c1ccc(C(=O)OC)cc1 [Example 4-47]

- IC50: < 100 nM
Structure (SMILES): O=C(NCCN1CCOCC1)c1ccc(CNC(=O)c2cc(NC(=O)c3cc(F)c(F)cc3Cl)[nH]n2)cc1 [Example 5-4]
